Assay results reported in patent US10556888B2, “Pyrazole compounds or salts thereof, preparation methods therefor, herbicidal compositions and use thereof” (QINGDAO KINGAGROOT CHEMICAL COMPOUNDS CO., LTD, priority 2015, dated 2020).

Key:
[1] = system: main crop (wheat, corn, rice, soybean, cotton, oilseed, millet and sorghum); assay: Post-emergence test experiment, main crops (Table 2); assay type: in vivo; parameters: key: Level 10: completely dead; Level 9: above 90% growth inhibition rate; Level 8: above 80% growth inhibition rate; Level 7: above 70% growth inhibition rate; Level 6: above 60% growth inhibition rate; Level 5: above 50% growth inhibition rate; Level 4: above 30% growth inhibition rate; Level 3: above 20% growth inhibition rate; Level 2: above 10% growth inhibition rate; Level 1: above 1-10% growth inhibition rate; Level 0: no effect; conditions: 3 weeks after spraying, greenhouse
Protocol: (§1) Post-emergence test experiment: Monocotyledonous and dicotyledonous weed seeds and main crop seeds (i.e. wheat, corn, rice, soybean, cotton, oilseed, millet and sorghum.) were put into a plastic pot loaded with soil. Then covered with 0.5-2 cm soil, the seeds were allowed to grow in good greenhouse environment. The test plants were treated at 2-3 leaf stage 2-3 weeks after sowing. The test compounds of the invention were dissolved with acetone respectively, then added with 80 tween and diluted by certain amount of water to certain concentration. The solution was sprayed to the plants with a sprayer. Then the plants were cultured for 3 weeks in the greenhouse.

[2] = system: Monocotyledonous and dicotyledonous weed; assay: Post-emergence test experiment, weed control effect (Table 2); assay type: in vivo; parameters: key to weed control effect, Setaria viridis (level) / weed control effect, Rorippa indica (level) / weed control effect, Abutilon theophrasti (level) / weed control effect, Echinochloa crus-galli (level) / weed control effect, Digitaria sanguinalis (level): Level 10: completely dead; Level 9: above 90% growth inhibition rate; Level 8: above 80% growth inhibition rate; Level 7: above 70% growth inhibition rate; Level 6: above 60% growth inhibition rate; Level 5: above 50% growth inhibition rate; Level 4: above 30% growth inhibition rate; Level 3: above 20% growth inhibition rate; Level 2: above 10% growth inhibition rate; Level 1: above 1-10% growth inhibition rate; Level 0: no effect; conditions: 3 weeks after spraying, greenhouse
Protocol: as §1

Row | Compound | effect on crop, corn (level) ([1]; 30 g/ha) | effect on crop, rice (level) ([1]; 30 g/ha) | effect on crop, wheat (level) ([1]; 30 g/ha) | weed control effect, Abutilon theophrasti (level) ([2]; 30 g/ha) | weed control effect, Bidens pilosa (level) ([2]; 30 g/ha) | weed control effect, Digitaria sanguinalis (level) ([2]; 30 g/ha) | weed control effect, Echinochloa crus-galli (level) ([2]; 30 g/ha) | weed control effect, Rorippa indica (level) ([2]; 30 g/ha) | weed control effect, Setaria viridis (level) ([2]; 30 g/ha) | further results
1 | CCOCc1c(S(C)(=O)=O)ccc(C(=O)c2cnn(C)c2OC(=O)c2cn(C)nc2C)c1Cl [Compound 42] | 0 | 5 (Level 5: above 50% growth inhibition rate) | 0 | 7 (Level 7: above 70% growth inhibition rate) | 7 (Level 7: above 70% growth inhibition rate) | 7 (Level 7: above 70% growth inhibition rate) | 10 | 10 | 9 (Level 9: above 90% growth inhibition rate) | 
2 | Cc1nn(C)cc1C(=O)Oc1c(C(=O)c2ccc(S(C)(=O)=O)c(COCC3CCCO3)c2Cl)c(C)nn1C(C)C (stereo not drawn) [Compound 101] |  |  |  |  |  |  |  |  |  | effect on crop, corn (level) ([1]; 250 g/ha): 1 (Level 1: above 1-10% growth inhibition rate); effect on crop, rice (level) ([1]; 250 g/ha): 8 (Level 8: above 80% growth inhibition rate); effect on crop, wheat (level) ([1]; 250 g/ha): 0; weed control effect, Abutilon theophrasti (level) ([2]; 250 g/ha): 7 (Level 7: above 70% growth inhibition rate); weed control effect, Bidens pilosa (level) ([2]; 250 g/ha): 7 (Level 7: above 70% growth inhibition rate); weed control effect, Digitaria sanguinalis (level) ([2]; 250 g/ha): 6 (Level 6: above 60% growth inhibition rate); weed control effect, Echinochloa crus-galli (level) ([2]; 250 g/ha): 9 (Level 9: above 90% growth inhibition rate); weed control effect, Rorippa indica (level) ([2]; 250 g/ha): 10; weed control effect, Setaria viridis (level) ([2]; 250 g/ha): 7 (Level 7: above 70% growth inhibition rate)
3 | CCOc1c(C(=O)Oc2c(C(=O)c3ccc(S(C)(=O)=O)c(COCC(F)(F)F)c3Cl)cnn2C)cnn1C [Compound 54] | 1 (Level 1: above 1-10% growth inhibition rate) | 3 (Level 3: above 20% growth inhibition rate) | 0 | 7 (Level 7: above 70% growth inhibition rate) | 7 (Level 7: above 70% growth inhibition rate) | 7 (Level 7: above 70% growth inhibition rate) | 10 | 10 | 10 | 
4 | CCOCCOCc1c(S(C)(=O)=O)ccc(C(=O)c2c(C3CC3)nn(CC)c2OC(=O)c2cnn(C)c2OCC)c1C [Compound 86] | 0 | 3 (Level 3: above 20% growth inhibition rate) | 0 | 6 (Level 6: above 60% growth inhibition rate) | 7 (Level 7: above 70% growth inhibition rate) | 8 (Level 8: above 80% growth inhibition rate) | 8 (Level 8: above 80% growth inhibition rate) | 10 | 8 (Level 8: above 80% growth inhibition rate) | 
5 | CCOc1c(C(=O)Oc2c(C(=O)c3ccc(S(C)(=O)=O)c(COC)c3Cl)c(C)nn2CC)cnn1C [Compound 92] | 1 (Level 1: above 1-10% growth inhibition rate) | 3 (Level 3: above 20% growth inhibition rate) | 0 | 5 (Level 5: above 50% growth inhibition rate) | 7 (Level 7: above 70% growth inhibition rate) | 8 (Level 8: above 80% growth inhibition rate) | 10 | 10 | 10 | 
6 | CCOCc1c(S(C)(=O)=O)ccc(C(=O)c2c(CC)nn(C)c2OC(=O)c2cn(C)nc2C)c1Cl [Compound 31] | 0 | 5 (Level 5: above 50% growth inhibition rate) | 0 | 7 (Level 7: above 70% growth inhibition rate) | 7 (Level 7: above 70% growth inhibition rate) | 10 | 10 | 5 (Level 5: above 50% growth inhibition rate) | 9 (Level 9: above 90% growth inhibition rate) | 
7 | CCCCOCc1c(S(C)(=O)=O)ccc(C(=O)c2c(C3CC3)nn(C)c2OC(=O)c2cnn(C)c2)c1Cl [Compound 75] | 0 | 3 (Level 3: above 20% growth inhibition rate) | 0 | 5 (Level 5: above 50% growth inhibition rate) | 6 (Level 6: above 60% growth inhibition rate) | 9 (Level 9: above 90% growth inhibition rate) | 10 | 10 | 7 (Level 7: above 70% growth inhibition rate) | 
8 | C#CCOCc1c(S(C)(=O)=O)ccc(C(=O)c2cnn(C)c2OC(=O)c2cn(C)nc2C)c1Cl [Compound 41] | 0 | 5 (Level 5: above 50% growth inhibition rate) | 0 | 7 (Level 7: above 70% growth inhibition rate) | 7 (Level 7: above 70% growth inhibition rate) | 8 (Level 8: above 80% growth inhibition rate) | 10 | 10 | 10 | 
9 | COCc1c(S(C)(=O)=O)ccc(C(=O)c2c(C3CC3)nn(C)c2OC(=O)c2cnn(C)c2)c1Cl [Compound 72] | 2 (Level 2: above 10% growth inhibition rate) | 3 (Level 3: above 20% growth inhibition rate) | 0 | 7 (Level 7: above 70% growth inhibition rate) | 7 (Level 7: above 70% growth inhibition rate) | 8 (Level 8: above 80% growth inhibition rate) | 10 | 10 | 8 (Level 8: above 80% growth inhibition rate) | 
10 | Cc1cc(C)n(Cc2c(S(C)(=O)=O)ccc(C(=O)c3c(C4CC4)nn(C)c3OC(=O)c3cnn(C)c3)c2Cl)n1 [Compound 20] |  |  |  |  |  |  |  |  |  | effect on crop, corn (level) ([1]; 120 g/ha): 0; effect on crop, rice (level) ([1]; 120 g/ha): 0; effect on crop, wheat (level) ([1]; 120 g/ha): 0; weed control effect, Abutilon theophrasti (level) ([2]; 120 g/ha): 6 (Level 6: above 60% growth inhibition rate); weed control effect, Bidens pilosa (level) ([2]; 120 g/ha): 6 (Level 6: above 60% growth inhibition rate); weed control effect, Digitaria sanguinalis (level) ([2]; 120 g/ha): 1 (Level 1: above 1-10% growth inhibition rate); weed control effect, Echinochloa crus-galli (level) ([2]; 120 g/ha): 10; weed control effect, Rorippa indica (level) ([2]; 120 g/ha): 4 (Level 4: above 30% growth inhibition rate); weed control effect, Setaria viridis (level) ([2]; 120 g/ha): 5 (Level 5: above 50% growth inhibition rate)
